Results on 16 compounds are retold here after PMC7143076, “Anion Inhibition Studies of the β-Class Carbonic Anhydrase CAS3 from the Filamentous Ascomycete Sordaria macrospora” (Metabolites, 2020).

pKi: −log10 of the molar value.

For one assay, the target named is T1, CAS3 (Sordaria macrospora, UniProt F7VU04).
T1 construct: gene SMAC_03179
T1 sequence (F7VU04 1-174 limits assumed): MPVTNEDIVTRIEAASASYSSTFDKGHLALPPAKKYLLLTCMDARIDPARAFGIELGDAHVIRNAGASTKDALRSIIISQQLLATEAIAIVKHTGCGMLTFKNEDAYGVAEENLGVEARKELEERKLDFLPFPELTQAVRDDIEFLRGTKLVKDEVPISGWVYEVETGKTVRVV
The experiment in a line: stopped-flow CO2 hydrase assay. Format: biochemical. The note with it: read-out: CAS2 ^b; CO2 1.7-17 mM; pH 8.3, 10-20 mM TRIS, 10 mM NaClO4, 20 °C; 15 min preincubation; sodium salt.
As for `O=C(O)O` [CO3^2-], the pKi was 2.10.

Staying with this assay, now noted: read-out: CAS3 ^c.
For the compound `N#CO` [CNO^-], the pKi is 2.49.

On to `S` [HS^-], for which the pKi was 2.08. Same read-out and setting: then `[N-]=[N+]=[N-]` [N3^-], with 2.14; and `N#C[SeH]` [SeCN^-], with 2.15; and `O=[Se](=O)(O)O` [SeO4^2-], with 2.47. On to `O=[Te](=O)(O)O` [TeO4^2-], for which the pKi is 2.09.

Staying with this assay, now noted: read-out: CAS3 ^c; CO2 1.7-17 mM; pH 8.3, 10-20 mM TRIS, 10 mM NaClO4, 20 °C; 15 min preincubation.
Consider `NS(N)(=O)=O` [H2NSO2NH2], for which the pKi is 4.03.

As to `OB(O)c1ccccc1` [Ph-B(OH)2], the pKi is 4.01.

The same assay, now with this note: read-out: CAS3 ^c; CO2 1.7-17 mM; pH 8.3, 10-20 mM TRIS, 10 mM NaClO4, 20 °C; 15 min preincubation; sodium salt.
With `S=C(S)S` [CS3^2-], the pKi was 2.07. In the case of `CCN(CC)C(=S)S` [Et2NCS2^-], the pKi was 3.05. On to `NS(=O)(=O)O` [H2NSO3H], for which the pKi is 4.02.

Take `O=C(O)O` [HCO3^-]: the pKi is 2.47.

As for `O=NO` [NO2^-], the pKi was 2.08. Take `O=[N+]([O-])O` [NO3^-]: the pKi is 2.07. With `N#CS` [SCN^-], the pKi was 2.14.
